# From the supplement of paper PMC8671470
# System: HL-60
# Assay: area under dose-response curve (viability, 1 nM-10 uM) (fraction (0-1)); higher = more sensitive
# Settings: 72 h; co-treatment: AZD3965 100 nM
# In short: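 Area under the curve, where listed, was derived from four-parameter log-logistic fits with drc and PharmacoGx. These fits used CellTiter-Glo viability from HL-60 cells in RPMI 1640 with 10% FBS, normalised to DMSO wells and wells holding 10 μM proteasome inhibitor. The full library was rescreened on 384-well plates in duplicate at five tenfold concentrations, 1–10,000 nM, with DMSO or 100 nM of one of three metabolic inhibitors, for 72 h at 37 °C, 5% CO2.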
row,SMILES,area under dose-response curve
1,OC[C@H]1N[C@@H](c2c[nH]c3c(O)ncnc23)[C@H](O)[C@@H]1O [Forodesine],< 0.0301
2,O=c1oc2c(cc1O)oc(=O)c1cc(O)c(O)c(O)c12 [Galloflavin],< 0.0301
3,Nc1ccn([C@@H]2O[C@H](CO)[C@@H](O)C2(F)F)c(=O)n1 [Gemcitabine],0.648
4,N[C@@H](CCC(=O)N[C@@H](CS)C(=O)NCC(=O)O)C(=O)O [Glutathione],< 0.0301
5,Clc1cc(Cl)c(OCC#CI)cc1Cl [Haloprogin],0.125
6,O=c1[nH]c(=O)n([C@H]2C[C@H](O)[C@@H](CO)O2)cc1I [Idoxuridine],< 0.0301
7,CC1Cc2ccccc2N1NC(=O)c1ccc(Cl)c(S(N)(=O)=O)c1 (stereo not drawn) [Indapamide],< 0.0301
8,NS(=O)(=O)c1ccc(S(=O)(=O)Nc2cccc3c(Cl)c[nH]c23)cc1 [Indisulam],< 0.0301
9,COc1ccc2c(c1)c(CC(=O)O)c(C)n2C(=O)c1ccc(Cl)cc1 [Indomethacine],< 0.0301
10,Cn1cc(C[C@@H](N)C(=O)O)c2ccccc21 [Indoximod],< 0.0301

# Same assay, conditions: 72 h; co-treatment: DMSO vehicle
row,SMILES,area under dose-response curve
1,OC[C@H]1N[C@@H](c2c[nH]c3c(O)ncnc23)[C@H](O)[C@@H]1O [Forodesine],< 0.0301
2,O=c1oc2c(cc1O)oc(=O)c1cc(O)c(O)c(O)c12 [Galloflavin],< 0.0301
3,Nc1ccn([C@@H]2O[C@H](CO)[C@@H](O)C2(F)F)c(=O)n1 [Gemcitabine],0.631
4,N[C@@H](CCC(=O)N[C@@H](CS)C(=O)NCC(=O)O)C(=O)O [Glutathione],< 0.0301
5,Clc1cc(Cl)c(OCC#CI)cc1Cl [Haloprogin],0.032
6,O=c1[nH]c(=O)n([C@H]2C[C@H](O)[C@@H](CO)O2)cc1I [Idoxuridine],< 0.0301
7,CC1Cc2ccccc2N1NC(=O)c1ccc(Cl)c(S(N)(=O)=O)c1 (stereo not drawn) [Indapamide],< 0.0301
8,NS(=O)(=O)c1ccc(S(=O)(=O)Nc2cccc3c(Cl)c[nH]c23)cc1 [Indisulam],< 0.0301
9,COc1ccc2c(c1)c(CC(=O)O)c(C)n2C(=O)c1ccc(Cl)cc1 [Indomethacine],< 0.0301
10,Cn1cc(C[C@@H](N)C(=O)O)c2ccccc21 [Indoximod],< 0.0301

# Same assay, conditions: 72 h; co-treatment: GSK2194069 100 nM
row,SMILES,area under dose-response curve
1,OC[C@H]1N[C@@H](c2c[nH]c3c(O)ncnc23)[C@H](O)[C@@H]1O [Forodesine],< 0.0301
2,O=c1oc2c(cc1O)oc(=O)c1cc(O)c(O)c(O)c12 [Galloflavin],< 0.0301
3,Nc1ccn([C@@H]2O[C@H](CO)[C@@H](O)C2(F)F)c(=O)n1 [Gemcitabine],0.634
4,N[C@@H](CCC(=O)N[C@@H](CS)C(=O)NCC(=O)O)C(=O)O [Glutathione],< 0.0301
5,Clc1cc(Cl)c(OCC#CI)cc1Cl [Haloprogin],< 0.0301
6,O=c1[nH]c(=O)n([C@H]2C[C@H](O)[C@@H](CO)O2)cc1I [Idoxuridine],< 0.0301
7,CC1Cc2ccccc2N1NC(=O)c1ccc(Cl)c(S(N)(=O)=O)c1 (stereo not drawn) [Indapamide],< 0.0301
8,NS(=O)(=O)c1ccc(S(=O)(=O)Nc2cccc3c(Cl)c[nH]c23)cc1 [Indisulam],< 0.0301
9,COc1ccc2c(c1)c(CC(=O)O)c(C)n2C(=O)c1ccc(Cl)cc1 [Indomethacine],< 0.0301
10,Cn1cc(C[C@@H](N)C(=O)O)c2ccccc21 [Indoximod],< 0.0301

# Same assay, conditions: 72 h; co-treatment: pictilisib 100 nM
row,SMILES,area under dose-response curve
1,OC[C@H]1N[C@@H](c2c[nH]c3c(O)ncnc23)[C@H](O)[C@@H]1O [Forodesine],< 0.0301
2,O=c1oc2c(cc1O)oc(=O)c1cc(O)c(O)c(O)c12 [Galloflavin],< 0.0301
3,Nc1ccn([C@@H]2O[C@H](CO)[C@@H](O)C2(F)F)c(=O)n1 [Gemcitabine],0.663
4,N[C@@H](CCC(=O)N[C@@H](CS)C(=O)NCC(=O)O)C(=O)O [Glutathione],< 0.0301
5,Clc1cc(Cl)c(OCC#CI)cc1Cl [Haloprogin],0.0952
6,O=c1[nH]c(=O)n([C@H]2C[C@H](O)[C@@H](CO)O2)cc1I [Idoxuridine],< 0.0301
7,CC1Cc2ccccc2N1NC(=O)c1ccc(Cl)c(S(N)(=O)=O)c1 (stereo not drawn) [Indapamide],< 0.0301
8,NS(=O)(=O)c1ccc(S(=O)(=O)Nc2cccc3c(Cl)c[nH]c23)cc1 [Indisulam],< 0.0301
9,COc1ccc2c(c1)c(CC(=O)O)c(C)n2C(=O)c1ccc(Cl)cc1 [Indomethacine],< 0.0301
10,Cn1cc(C[C@@H](N)C(=O)O)c2ccccc21 [Indoximod],< 0.0301

# System: SHI-1
# Assay: cell viability (% survival relative to DMSO control, bortezomib = 0%); higher = less cytotoxic
# Settings: 1 nM; 72 h
# In short: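 After 72 h at 37 °C with 5% CO2, cell viability in 384-well plates was measured by CellTiter-Glo luminescence. The plates held compounds pre-printed at 1, 10, 100, 1000 or 10000 nM in duplicate, and cells from 10 AML and 5 CML lines seeded at densities titrated to linear growth. Percent survival is the duplicate mean, normalised to vehicle as 100% and a 10 µM positive control as 0%.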
row,SMILES,cell viability
1,OC[C@H]1N[C@@H](c2c[nH]c3c(O)ncnc23)[C@H](O)[C@@H]1O [Forodesine],101%
2,O=c1oc2c(cc1O)oc(=O)c1cc(O)c(O)c(O)c12 [Galloflavin],108%
3,Nc1ccn([C@@H]2O[C@H](CO)[C@@H](O)C2(F)F)c(=O)n1 [Gemcitabine],101%
4,N[C@@H](CCC(=O)N[C@@H](CS)C(=O)NCC(=O)O)C(=O)O [Glutathione],99.3%
5,Clc1cc(Cl)c(OCC#CI)cc1Cl [Haloprogin],97.8%
6,O=c1[nH]c(=O)n([C@H]2C[C@H](O)[C@@H](CO)O2)cc1I [Idoxuridine],102%
7,CC1Cc2ccccc2N1NC(=O)c1ccc(Cl)c(S(N)(=O)=O)c1 (stereo not drawn) [Indapamide],92.5%
8,NS(=O)(=O)c1ccc(S(=O)(=O)Nc2cccc3c(Cl)c[nH]c23)cc1 [Indisulam],96.8%
9,COc1ccc2c(c1)c(CC(=O)O)c(C)n2C(=O)c1ccc(Cl)cc1 [Indomethacine],120%
10,Cn1cc(C[C@@H](N)C(=O)O)c2ccccc21 [Indoximod],96%

# Same assay, conditions: 10 nM; 72 h
row,SMILES,cell viability
1,OC[C@H]1N[C@@H](c2c[nH]c3c(O)ncnc23)[C@H](O)[C@@H]1O [Forodesine],95.5%
2,O=c1oc2c(cc1O)oc(=O)c1cc(O)c(O)c(O)c12 [Galloflavin],105%
3,Nc1ccn([C@@H]2O[C@H](CO)[C@@H](O)C2(F)F)c(=O)n1 [Gemcitabine],25.9%
4,N[C@@H](CCC(=O)N[C@@H](CS)C(=O)NCC(=O)O)C(=O)O [Glutathione],106%
5,Clc1cc(Cl)c(OCC#CI)cc1Cl [Haloprogin],112%
6,O=c1[nH]c(=O)n([C@H]2C[C@H](O)[C@@H](CO)O2)cc1I [Idoxuridine],99.6%
7,CC1Cc2ccccc2N1NC(=O)c1ccc(Cl)c(S(N)(=O)=O)c1 (stereo not drawn) [Indapamide],93.8%
8,NS(=O)(=O)c1ccc(S(=O)(=O)Nc2cccc3c(Cl)c[nH]c23)cc1 [Indisulam],101%
